Measured values from doi:10.1101/2023.10.03.560722, “Drug Discovery in Low Data Regimes: Leveraging a Computational Pipeline for the Discovery of Novel SARS-CoV-2 Nsp14-MTase Inhibitors” (bioRxiv, 2024).
Where two headings read alike, the source gives them in different places. Where a SMILES comes first, the peptide text is derived from it. [ ]: non-standard residue; d: D form. The star is where a group is joined. Ac5c = NC1(C(=O)O)CCCC1; Cbz = O=C(OCc1ccccc1)*

Legend:
[1] = molecular target: T1, SARS-CoV-2 nsp14 MTase (Severe acute respiratory syndrome coronavirus 2, UniProt P0DTD1); assay: biochemical; assay type: biochemical; conditions: for IC50: nsp14 MTase activity, high-throughput screening follow-up
[2] = tested on: SARS-CoV-2; assay type: cell-based; conditions: Calu-3 cells, lung epithelial SARS-CoV-2 infection model
[3] = molecular target: nsp14 (Severe acute respiratory syndrome coronavirus 2, UniProt P0DTD1); assay: surface plasmon resonance (SPR) binding to immobilized full-length biotinylated nsp14; set-up: species or system SARS-CoV-2
Procedure: For Surface Plasmon Resonance (SPR), the full-length biotinylated nsp14 was immobilized on the flow cell of a SA sensor chip in 1x HBS-EP buffer, achieving a response of 8000 RU. The assay was performed using the same buffer but with 2% DMSO added. Single-cycle kinetics were employed with a contact time of 60 seconds and a dissociation time of 120 seconds, at a flow rate of 75 µL/min. NSC620333 was tested at a concentration of 10 µM as the highest concentration, and a dilution factor of 0.25 was used to yield five different concentrations.

[4] = molecular target: T1, SARS-CoV-2 nsp14 MTase; conditions: inhibition of nsp14 methyltransferase activity; cited from earlier work
[5] = compound 100µM, replicate experiment 1
[6] = compound 100µM, replicate experiment 2

Compound	nsp14 Inhibition % (100µM) Exp 1 [1, 5] [%]	nsp14 Inhibition % (100µM) Exp 2 [1, 6] [%]	further results
O=C(O)c1ccc(C(=O)c2ccc(C(=O)c3ccc(C(=O)O)cc3)cc2)cc1 [NSC2269]	64	60	IC50 ([1]; read-out: IC50): 27 µM
O=C(CN1CCOCC1)C(O)C(O)C(O)CO (stereo not shown) [NSC4348]	73	61	IC50 ([1]; read-out: IC50): 34 µM
O=C(O)c1nc(N=Nc2ccc(S(=O)(=O)O)cc2)[nH]c1C(=O)O [NSC4624]	65	47	–
O=C(N/N=C/[C@H](O)[C@H]1OC(=O)[C@@H](O)[C@H]1O)c1ccncc1 [NSC27605]	26	10	–
OCC(O)C(O)C(O)C(O)c1nc2ccccc2s1 (stereo not shown) [NSC34443]	86	81	IC50 ([1]; read-out: IC50): 57 µM
O=C(NNCNNC(=O)c1ccncc1)c1ccncc1 [NSC39302]	7	−2	–
Nc1nc2nn(-c3ccc(C(=O)NC(CCC(=O)O)C(=O)O)cc3)nc2c(=O)[nH]1 (stereo not shown) [NSC44037]	15	9	–
OCCNc1ncnc2c1ncn2[C@@H]1O[C@H](CO)[C@@H](O)[C@H]1O [NSC54251]	4	−4	–
O=C1C2C3C=CC(O3)C2C(=O)N1/N=C/C(O)C(O)C(O)C(O)CO (stereo not shown) [NSC60360]	4	−4	–
O=c1cc(-c2ccc(O)cc2)oc2c(O)c(O)c(O)c(O)c12 [NSC76988]	–	–	IC50 ([1]; IC50 (µM)): 6 µM; inhibition at 100 µM ([1]; compound 100µM, replicate experiment 1, read-out: nsp14 Inhibition % (100µM) Exp 1): 100%; inhibition at 100 µM ([1]; compound 100µM, replicate experiment 2, read-out: nsp14 Inhibition % (100µM) Exp 2): 99%; anti-SARS-CoV-2 activity [2]: demonstrated anti-SARS-CoV-2 activity; direct binding to nsp14 [3]: no direct binding was detected
O=C1C=C(O)C(=C/C=C/C=C/c2c(O)cc(O)cc2O)C(O)=C1 [NSC77131]	99	99	IC50 ([1]; read-out: IC50): 9 µM
Nc1ncnc2c1ncn2[C@H]1C[C@H](O)[C@@H](COP(=O)(O)O)O1 [NSC77680]	13	7	–
O=C(O)CNC(=O)C1(NC(=O)CNC(=O)OCc2ccccc2)CCCC1 [NSC80136] (Cbz-Gly-[Ac5c]-Gly-OH)	13	2	–
O=C(CCCCn1ccc(=O)[nH]c1=O)Nc1ccc(C(=O)O)c(O)c1 [NSC92432]	6	−1	–
CN(CC(O)C(O)C(O)C(O)CO)CN1C(=O)C(=O)c2ccccc21 (stereo not shown) [NSC99790]	46	36	–
O=S(=O)(O)c1cc(Cl)cc(N=Nc2ccc(O)cc2O)c1O [NSC102798]	77	74	–
OC1COC(n2cnc3c(=S)nc[nH]c32)C(O)C1O (stereo not shown) [NSC107661]	18	7	–
Nc1ncnc2c1ncn2C1OC(CO)C(NC(=O)C(N)Cc2ccccc2)C1O (stereo not shown) [NSC114010]	11	−3	–
NC(CCC(=O)NC(CSCc1ccc(F)cc1)C(=O)NCC(=O)O)C(=O)O (stereo not shown) [NSC131119]	8	0	–
NC(CCCNc1nc(O)c(-c2ccccc2)c(=O)[nH]1)C(=O)O (stereo not shown) [NSC132916]	−1	−3	–

Compound	nsp14 Inhibition % (100µM) Exp 1 [1, 5] [%]	nsp14 Inhibition % (100µM) Exp 2 [1, 6] [%]	further results
O=C(O)/C=C\C(=O)NCC1CCC(CNC(=O)/C=C\C(=O)O)CC1 (stereo not shown) [NSC137050]	6	−1	–
NS(=O)(=O)c1ccc(NC2OCC(O)C(O)C2O)cc1 (stereo not shown) [NSC158437]	5	1	–
Nc1ncnc2c1ncn2C1OC(C(=O)NCC(=O)O)C(O)C1O (stereo not shown) [NSC163444]	9	5	–
O=C(O)c1cc(=O)n(CCCCCCn2c(=O)cc(C(=O)O)[nH]c2=O)c(=O)[nH]1 [NSC232469]	7	−7	–
O=P(O)(O)OC[C@H]1O[C@@H](n2cnc3c(NCc4ccccc4)ncnc32)[C@H](O)[C@@H]1O [NSC255523]	59	33	–
CC(C)=CCNc1ncnc2c1ncn2[C@@H]1O[C@H](COP(=O)(O)O)[C@@H](O)[C@H]1O [NSC268226]	9	0	–
Cn1c(=O)c2c(ncn2CCCNCC(O)c2ccc(O)c(CO)c2)n(C)c1=O (stereo not shown) [NSC293892]	15	3	–
CC(CCc1ccc2c(c1)OCO2)NCC(O)c1ccc(O)c(C(N)=O)c1 (stereo not shown) [NSC313453]	–	–	inhibition at 100 µM ([1]; read-out: nsp14 Inhibition % (100µM) Exp 1): 3%; inhibition at 100 µM ([1]; read-out: nsp14 Inhibition % (100µM) Exp 2): -5%
O=C(O)CCC(=O)NCC1CCCC(CNC(=O)CCC(=O)O)C1 (stereo not shown) [NSC317609]	7	1	–
O=P(O)(O)OC1OC(n2cnc3c(NCc4ccc(F)cc4)ncnc32)C(O)C1O (stereo not shown) [NSC330685]	4	2	–
O=C(O)C(Cc1ccc(O)cc1)NC(c1ccccc1)P(=O)(O)O (stereo not shown) [NSC377438]	8	−3	–
NC(CSCCSCCSCC(N)C(=O)O)C(=O)O (stereo not shown) [NSC400718]	89	88	IC50 ([1]; read-out: IC50): 38 µM
O=S(=O)(O)c1ccc(N=Nc2c(O)ccc3n[nH]nc23)cc1 [NSC400937]	73	66	–
O=c1ccn(C2OC(C(O)CO)C(O)C2O)c(=O)[nH]1 (stereo not shown) [NSC613624]	4	−1	–
COc1cc(N=Nc2ccccc2C(=O)O)cc(/C=N/NNC(N)=S)c1O [NSC630814]	84	82	–
O=C1NC(=O)C(C(=O)C(=O)Nc2cccc(C(F)(F)F)c2)C(=O)N1 [NSC646375]	26	20	–
NC(CCCC(N)P(=O)(O)c1ccccc1)P(=O)(O)c1ccccc1 (stereo not shown) [NSC655184]	7	−11	–
O=C(O)c1ccc(Nc2nc3ccccc3nc2C(=O)O)cc1 [NSC670682]	50	54	–
N#Cc1cn([C@@H]2O[C@H](CSCC[C@H](N)C(=O)O)C(O)[C@@H]2O)c2ncnc(N)c12 (stereo partly shown) [SS148]	–	–	IC50 [4]: 0.07 ± 0.006 µM
